Laboratory results: publication PMC5218480 (PLoS ONE, 2017)

System: MV-4-11 cells
Test: Gene expression microarray analysis (Affymetrix PrimeView) and GSEA
Type: cell-based, human
Set-up: RFU PODN (11730768_x_at) / Fold change /veh PODN (11730768_x_at) / RFU LINC00158 (11744669_a_at) / Fold change /veh LINC00158 (11744669_a_at) / RFU DUSP10 (11751237_a_at) / Fold change /veh DUSP10 (11751237_a_at) / RFU ID3 (11757404_x_at) / Fold change /veh ID3 (11757404_x_at) / RFU PLEKHG5 (11737974_s_at) / Fold change /veh PLEKHG5 (11737974_s_at) / RFU LRRC4B (11730491_at) / Fold change /veh LRRC4B (11730491_at) / RFU GIMAP4 (11747438_a_at) / Fold change /veh GIMAP4 (11747438_a_at) / RFU KRT8 (11758183_x_at) / Fold change /veh KRT8 (11758183_x_at) / RFU CNN1 (11734310_a_at) / Fold change /veh CNN1 (11734310_a_at) / RFU VPS37D (11726825_at) / Fold change /veh VPS37D (11726825_at) / RFU C10orf10 (11716522_x_at) / Fold change /veh C10orf10 (11716522_x_at) / RFU KIR2DL2 /// KIR2DL4 /// KIR2DL5A /// KIR2DL5B /// KIR2DS1 /// KIR2DS2 /// KIR2DS3 /// KIR2DS4 /// KIR3DL3 /// KIR3DL3 /// KIR3DS1 (11738374_at) / Fold change /veh KIR2DL2 /// KIR2DL4 /// KIR2DL5A /// KIR2DL5B /// KIR2DS1 /// KIR2DS2 /// KIR2DS3 /// KIR2DS4 /// KIR3DL3 /// KIR3DL3 /// KIR3DS1 (11738374_at) / RFU C1QL1 (11718748_at) / Fold change /veh C1QL1 (11718748_at) / RFU TMPRSS4 (11747572_a_at) / Fold change /veh TMPRSS4 (11747572_a_at) / RFU HAMP (11756126_x_at) / Fold change /veh HAMP (11756126_x_at) / RFU RNFT2 (11725882_a_at) / Fold change /veh RNFT2 (11725882_a_at) / RFU NR4A2 (11747474_a_at) / Fold change /veh NR4A2 (11747474_a_at) / RFU ABCC12 (11746883_a_at) / Fold change /veh ABCC12 (11746883_a_at) / RFU TMEM136 (11760407_x_at) / Fold change /veh TMEM136 (11760407_x_at) / RFU CLDN22 /// WWC2 (11732394_at) / Fold change /veh CLDN22 /// WWC2 (11732394_at) / RFU HLA-DPB1 (11760878_x_at) / Fold change /veh HLA-DPB1 (11760878_x_at) / RFU SPINT1 (11716480_a_at) / Fold change /veh SPINT1 (11716480_a_at) / RFU GAP43 (11754022_s_at) / Fold change /veh GAP43 (11754022_s_at) / RFU A4GNT (11735810_at) / Fold change /veh A4GNT (11735810_at) / RFU PRB3 (11715151_x_at) / Fold change /veh PRB3 (11715151_x_at) / RFU TUBB4B (11761932_at) / Fold change /veh TUBB4B (11761932_at) / RFU CAPN14 (11732068_a_at) / Fold change /veh CAPN14 (11732068_a_at) / RFU TMCC2 (11721928_a_at) / Fold change /veh TMCC2 (11721928_a_at) / RFU IRGQ (11745062_a_at) / Fold change /veh IRGQ (11745062_a_at) / RFU FAM174B (11720279_a_at) / Fold change /veh FAM174B (11720279_a_at) / RFU TMPRSS4 (11748680_a_at) / Fold change /veh TMPRSS4 (11748680_a_at) / RFU FAM212B (11763350_a_at) / Fold change /veh FAM212B (11763350_a_at) / RFU PLEKHG5 (11743358_a_at) / Fold change /veh PLEKHG5 (11743358_a_at) / RFU ZSCAN30 (11745921_a_at) / Fold change /veh ZSCAN30 (11745921_a_at) / RFU CMKLR1 (11741424_a_at) / Fold change /veh CMKLR1 (11741424_a_at) / RFU LOC101060620 /// MAPK8IP1 (11723275_at) / Fold change /veh LOC101060620 /// MAPK8IP1 (11723275_at) / RFU SPTSSB (11747773_x_at) / Fold change /veh SPTSSB (11747773_x_at) / RFU PRSS12 (11739890_at) / Fold change /veh PRSS12 (11739890_at) / RFU BIN1 (11741810_x_at) / Fold change /veh BIN1 (11741810_x_at) / RFU WNT11 (11732464_a_at) / Fold change /veh WNT11 (11732464_a_at) / RFU C10orf10 (11716521_a_at) / Fold change /veh C10orf10 (11716521_a_at) / RFU C5orf56 (11738089_at) / Fold change /veh C5orf56 (11738089_at) / RFU CYB561 (11721691_x_at) / Fold change /veh CYB561 (11721691_x_at) / RFU ANKRD19P (11752326_a_at) / Fold change /veh ANKRD19P (11752326_a_at) / RFU OR2T12 /// OR2T33 /// OR2T8 (11738714_s_at) / Fold change /veh OR2T12 /// OR2T33 /// OR2T8 (11738714_s_at) / RFU VCAN (11748164_a_at) / Fold change /veh VCAN (11748164_a_at) / RFU JSRP1 (11732532_at) / Fold change /veh JSRP1 (11732532_at) / RFU KRTAP10-11 (11738290_x_at) / Fold change /veh KRTAP10-11 (11738290_x_at) / RFU MYO3A (11730013_a_at) / Fold change /veh MYO3A (11730013_a_at) / RFU EBF3 (11725865_a_at) / Fold change /veh EBF3 (11725865_a_at) / RFU CAMK2N1 (11719241_x_at) / Fold change /veh CAMK2N1 (11719241_x_at) / RFU C5orf56 (11738088_a_at) / Fold change /veh C5orf56 (11738088_a_at) / RFU OLFML3 (11715873_a_at) / Fold change /veh OLFML3 (11715873_a_at) / RFU LOC100653217 /// NTM (11731650_a_at) / Fold change /veh LOC100653217 /// NTM (11731650_a_at) / RFU MAPK11 (11762145_a_at) / Fold change /veh MAPK11 (11762145_a_at) / RFU FIZ1 (11724087_x_at) / Fold change /veh FIZ1 (11724087_x_at) / RFU OASL (11726364_x_at) / Fold change /veh OASL (11726364_x_at) / RFU SOX15 (11748057_x_at) / Fold change /veh SOX15 (11748057_x_at) / RFU CD79A (11719716_a_at) / Fold change /veh CD79A (11719716_a_at) / RFU HIST1H1D (11736915_at) / Fold change /veh HIST1H1D (11736915_at) / RFU CASKIN2 (11723855_a_at) / Fold change /veh CASKIN2 (11723855_a_at) / RFU LOC730098 (11760151_x_at) / Fold change /veh LOC730098 (11760151_x_at) / RFU OR4N2 (11742367_at) / Fold change /veh OR4N2 (11742367_at) / RFU PRRT2 (11749266_a_at) / Fold change /veh PRRT2 (11749266_a_at) / RFU SNX32 (11753110_a_at) / Fold change /veh SNX32 (11753110_a_at) / RFU CDHR5 (11726645_a_at) / Fold change /veh CDHR5 (11726645_a_at) / RFU RCAN1 (11760418_a_at) / Fold change /veh RCAN1 (11760418_a_at) / RFU FAM167A (11723789_a_at) / Fold change /veh FAM167A (11723789_a_at) / RFU FAM26E (11764081_at) / Fold change /veh FAM26E (11764081_at) / RFU ISYNA1 (11749810_s_at) / Fold change /veh ISYNA1 (11749810_s_at) / RFU ACY1 (11761880_at) / Fold change /veh ACY1 (11761880_at) / RFU 11764098_at / Fold change /veh 11764098_at / RFU SAMD14 (11745864_x_at) / Fold change /veh SAMD14 (11745864_x_at) / RFU NPB (11741838_a_at) / Fold change /veh NPB (11741838_a_at) / RFU TMPRSS6 (11731388_a_at) / Fold change /veh TMPRSS6 (11731388_a_at) / RFU KRTAP10-2 (11738614_at) / Fold change /veh KRTAP10-2 (11738614_at) / RFU ARHGAP8 /// PRR5-ARHGAP8 (11727945_x_at) / Fold change /veh ARHGAP8 /// PRR5-ARHGAP8 (11727945_x_at) / RFU KRTAP5-7 /// NADSYN1 (11734609_at) / Fold change /veh KRTAP5-7 /// NADSYN1 (11734609_at) / RFU RASL12 (11751679_a_at) / Fold change /veh RASL12 (11751679_a_at) / RFU CDKN2B (11736163_a_at) / Fold change /veh CDKN2B (11736163_a_at) / RFU PRF1 (11729649_at) / Fold change /veh PRF1 (11729649_at) / RFU, ZNF638 /// ZNF638-IT1 / Fold change vs veh, ZNF638 /// ZNF638-IT1 / RFU, PANK3 / Fold change vs veh, PANK3 / RFU, SH3YL1 / Fold change vs veh, SH3YL1 / RFU, ZEB2 / Fold change vs veh, ZEB2 / RFU, NRIP1 / Fold change vs veh, NRIP1 / RFU, PTTG1IP / Fold change vs veh, PTTG1IP / RFU, CAPN2 / Fold change vs veh, CAPN2 / RFU, MED14 / Fold change vs veh, MED14 / RFU, SNORA58 / Fold change vs veh, SNORA58 / RFU, C1orf63 / Fold change vs veh, C1orf63 / RFU, LRRFIP1 / Fold change vs veh, LRRFIP1 / RFU, NDUFAF7 / Fold change vs veh, NDUFAF7 / RFU, SLC12A2 / Fold change vs veh, SLC12A2 / RFU, IBTK / Fold change vs veh, IBTK / RFU, ESF1 / Fold change vs veh, ESF1 / Fold change vs veh, TMEM50B / RFU, TAOK1 / Fold change vs veh, TAOK1 / RFU, ACBD3 / Fold change vs veh, ACBD3 / RFU, TMA16 / Fold change vs veh, TMA16 / RFU, RWDD3 / Fold change vs veh, RWDD3 / RFU, BCAT1 / Fold change vs veh, BCAT1 / RFU, EDEM3 / Fold change vs veh, EDEM3 / RFU, TMEM33 / Fold change vs veh, TMEM33 / RFU, WDR75 / Fold change vs veh, WDR75 / RFU, AHCTF1 / Fold change vs veh, AHCTF1 / RFU, TFRC / Fold change vs veh, TFRC / RFU, ZDHHC17 / Fold change vs veh, ZDHHC17 / RFU, NOM1 / Fold change vs veh, NOM1 / RFU, ARL8B / Fold change vs veh, ARL8B / RFU, ZBTB11 / Fold change vs veh, ZBTB11 / RFU, TAMM41 / Fold change vs veh, TAMM41 / RFU, KIAA1704 /// LOC100996395 / Fold change vs veh, KIAA1704 /// LOC100996395 / RFU, ING1 / Fold change vs veh, ING1 / RFU, TRMT61B / Fold change vs veh, TRMT61B / RFU, FUBP3 / Fold change vs veh, FUBP3 / RFU, TP53 / Fold change vs veh, TP53 / RFU, TNKS2 / Fold change vs veh, TNKS2 / RFU, ZFP14 / Fold change vs veh, ZFP14 / RFU, ACTR2 / Fold change vs veh, ACTR2 / RFU, PPP3R1 / Fold change vs veh, PPP3R1 / RFU, PIK3R1 / Fold change vs veh, PIK3R1 / RFU, HNRNPA1 / Fold change vs veh, HNRNPA1 / RFU, RNF170 / Fold change vs veh, RNF170 / RFU, ZNF28 / Fold change vs veh, ZNF28 / RFU, RNGTT / Fold change vs veh, RNGTT / RFU, OGT / Fold change vs veh, OGT / RFU, BRD1 / Fold change vs veh, BRD1 / RFU, MARS / Fold change vs veh, MARS / RFU, ZNF655 / Fold change vs veh, ZNF655 / RFU, FAHD1 / Fold change vs veh, FAHD1 / RFU, BDP1 / Fold change vs veh, BDP1 / RFU, LRRCC1 / Fold change vs veh, LRRCC1 / RFU, ARID1A / Fold change vs veh, ARID1A / RFU, ZNF146 / Fold change vs veh, ZNF146 / RFU, ZNF330 / Fold change vs veh, ZNF330 / RFU, GPN3 / Fold change vs veh, GPN3 / RFU, C9orf123 / Fold change vs veh, C9orf123 / RFU, N4BP2L2 / Fold change vs veh, N4BP2L2 / RFU, ARFIP1 / Fold change vs veh, ARFIP1 / RFU, FAM179B / Fold change vs veh, FAM179B / RFU, BCL10 / Fold change vs veh, BCL10 / RFU, UHRF1BP1L / Fold change vs veh, UHRF1BP1L / RFU, BET1 / Fold change vs veh, BET1 / RFU, CNOT2 / Fold change vs veh, CNOT2 / RFU, ZNF268 / Fold change vs veh, ZNF268 / Fold change vs veh, ZNF507 / RFU, DGCR2 / Fold change vs veh, DGCR2 / RFU, WDSUB1 / Fold change vs veh, WDSUB1 / Fold change vs veh, HSP90B1 /// MIR3652 / RFU, ADSS / Fold change vs veh, ADSS / RFU, GK / Fold change vs veh, GK / RFU, ZNF148 / Fold change vs veh, ZNF148 / RFU, TAF9 / Fold change vs veh, TAF9 / RFU, SLC1A5 / Fold change vs veh, SLC1A5 / RFU, SLMO2 / Fold change vs veh, SLMO2 / RFU, ABCC4 / Fold change vs veh, ABCC4 / RFU, LOC101060439 /// RAP1B / Fold change vs veh, LOC101060439 /// RAP1B / RFU, RFX7 / Fold change vs veh, RFX7 / RFU, GTPBP10 / Fold change vs veh, GTPBP10 / RFU, CNEP1R1 / Fold change vs veh, CNEP1R1 / RFU, BIVM-ERCC5 /// ERCC5 / Fold change vs veh, BIVM-ERCC5 /// ERCC5 / RFU, ILF3 / Fold change vs veh, ILF3 / RFU 11762660_at / Fold change /veh 11762660_at / RFU VCAN (11757783_s_at) / Fold change /veh VCAN (11757783_s_at) / RFU DDX43 (11728927_at) / Fold change /veh DDX43 (11728927_at) / RFU KRT8 (11758188_x_at) / Fold change /veh KRT8 (11758188_x_at) / RFU NKD1 (11759106_at) / Fold change /veh NKD1 (11759106_at) / RFU SRD5A1 (11742802_a_at) / Fold change /veh SRD5A1 (11742802_a_at) / RFU TPSAB1 /// TPSB2 (11721975_s_at) / Fold change /veh TPSAB1 /// TPSB2 (11721975_s_at) / RFU GSTM3 (11746129_a_at) / Fold change /veh GSTM3 (11746129_a_at) / RFU IL23R (11737362_x_at) / Fold change /veh IL23R (11737362_x_at) / RFU TMEM51 (11727254_a_at) / Fold change /veh TMEM51 (11727254_a_at) / RFU PIWIL2 (11732686_x_at) / Fold change /veh PIWIL2 (11732686_x_at) / RFU ORM1 (11744905_x_at) / Fold change /veh ORM1 (11744905_x_at) / RFU CCDC152 (11743942_at) / Fold change /veh CCDC152 (11743942_at) / RFU ECM1 (11717891_a_at) / Fold change /veh ECM1 (11717891_a_at) / RFU IL23R (11748794_a_at) / Fold change /veh IL23R (11748794_a_at) / RFU TNFAIP8L3 (11732012_x_at) / Fold change /veh TNFAIP8L3 (11732012_x_at) / RFU MBOAT4 (11741988_at) / Fold change /veh MBOAT4 (11741988_at) / RFU 11764193_at / Fold change /veh 11764193_at / RFU TMEM53 (11763286_at) / Fold change /veh TMEM53 (11763286_at) / RFU MAGEB2 (11727129_at) / Fold change /veh MAGEB2 (11727129_at) / RFU TMEM200A (11744735_a_at) / Fold change /veh TMEM200A (11744735_a_at) / RFU CCDC152 (11751479_a_at) / Fold change /veh CCDC152 (11751479_a_at) / RFU FAM211A (11726209_a_at) / Fold change /veh FAM211A (11726209_a_at) / RFU RGS16 (11746705_a_at) / Fold change /veh RGS16 (11746705_a_at) / RFU VCAN (11755009_s_at) / Fold change /veh VCAN (11755009_s_at) / RFU RHOB (11743442_s_at) / Fold change /veh RHOB (11743442_s_at) / RFU RGS16 (11720943_a_at) / Fold change /veh RGS16 (11720943_a_at) / RFU RGS16 (11720944_at) / Fold change /veh RGS16 (11720944_at) / RFU, VPS4B / Fold change vs veh, VPS4B / RFU, CREB1 / Fold change vs veh, CREB1 / RFU, DNAJC13 / Fold change vs veh, DNAJC13 / RFU, GNAQ / Fold change vs veh, GNAQ / RFU, CDK5R1 / Fold change vs veh, CDK5R1 / RFU, ZRANB3 / Fold change vs veh, ZRANB3 / RFU, CUL4A / Fold change vs veh, CUL4A / RFU, CCNY / Fold change vs veh, CCNY / RFU, UFL1 / Fold change vs veh, UFL1 / RFU, COG3 / Fold change vs veh, COG3 / RFU, DIAPH2 / Fold change vs veh, DIAPH2 / RFU, SKA2 / Fold change vs veh, SKA2 / RFU, AFF3 / Fold change vs veh, AFF3 / RFU, LMF1 / Fold change vs veh, LMF1 / RFU, IPO11 / Fold change vs veh, IPO11 / RFU, DFFB / Fold change vs veh, DFFB / RFU, FOXP1 / Fold change vs veh, FOXP1 / RFU, CARD8 / Fold change vs veh, CARD8 / RFU, STRN3 / Fold change vs veh, STRN3 / RFU, ADK / Fold change vs veh, ADK / RFU, RASSF2 / Fold change vs veh, RASSF2 / RFU, WIPF1 / Fold change vs veh, WIPF1 / RFU, LARP1B / Fold change vs veh, LARP1B / RFU, RASA1 / Fold change vs veh, RASA1 / RFU, RB1 / Fold change vs veh, RB1 / RFU, PPFIA1 / Fold change vs veh, PPFIA1 / RFU, MAT2A / Fold change vs veh, MAT2A / RFU, CCT5 / Fold change vs veh, CCT5 / RFU, WDR92 / Fold change vs veh, WDR92 / RFU, CUX1 / Fold change vs veh, CUX1 / RFU, TTC7A / Fold change vs veh, TTC7A / RFU, TMEM135 / Fold change vs veh, TMEM135 / RFU, DEPTOR / Fold change vs veh, DEPTOR / RFU, CPM / Fold change vs veh, CPM / RFU, DNAJB6 / Fold change vs veh, DNAJB6 / RFU, CACNA2D3 / Fold change vs veh, CACNA2D3 / RFU, DTX4 / Fold change vs veh, DTX4 / RFU, TFCP2 / Fold change vs veh, TFCP2 / RFU, GMCL1 /// GMCL1P1 / Fold change vs veh, GMCL1 /// GMCL1P1 / RFU, AEBP2 / Fold change vs veh, AEBP2 / RFU, SNHG1 /// SNORD22 /// SNORD25 /// SNORD26 /// SNORD27 /// SNORD28 /// SNORD29 /// SNORD31 / Fold change vs veh, SNHG1 /// SNORD22 /// SNORD25 /// SNORD26 /// SNORD27 /// SNORD28 /// SNORD29 /// SNORD31 / Fold change (Aza/veh), C12orf56 (ProbeSet 11735607_a_at) / Fold change (ACY-1035/veh), C12orf56 (ProbeSet 11735607_a_at) / Fold change (Aza/veh), FGFR1OP (ProbeSet 11751329_s_at) / Fold change (ACY-1035/veh), FGFR1OP (ProbeSet 11751329_s_at) / Fold change (Aza/veh), VPS36 (ProbeSet 11739960_a_at) / Fold change (ACY-1035/veh), VPS36 (ProbeSet 11739960_a_at) / RFU SYPL1 (11715823_x_at) / Fold change /veh SYPL1 (11715823_x_at) / RFU IGFBP7 (11715501_s_at) / Fold change /veh IGFBP7 (11715501_s_at) / RFU REEP3 (11722064_at) / Fold change /veh REEP3 (11722064_at) / RFU IGLL1 (11728026_x_at) / Fold change /veh IGLL1 (11728026_x_at): dose or concentration left out as unconfirmed
Details: MV-4-11 cells, 48 hours

Compound: Nc1ncn([C@@H]2O[C@H](CO)[C@@H](O)[C@H]2O)c(=O)n1 [azacitidine]
- Fold change /veh SPTSSB (11747773_x_at): 1.09
